In patent US7696354B2, “Cephem compounds having broad antibacterial spectrum” (Shionogi & Co., Ltd., priority 2002, dated 2010):
≈ marks a conversion by molar mass, not a printed value.

Experiments:
Assay type in all cases: cell-based
[1] = test system: S. epidermidis SR25009 (MRSE); experiment: MIC by agar dilution method, S. epidermidis SR25009 (MRSE); conditions: Methicillin High-Resistant Staphylococcus Epidermidis; for MIC: MRSE, read-out: MIC (minimum inhibitory concentration) S. epidermidis SR25009 (MRSE)
Method: (§1) The MIC (minimum inhibitory concentration) value of the invention compounds against various bacterial was determined by the usual agar dilution method.

[2] = test system: S. aureus SR3637 (H-MRSA); experiment: MIC by agar dilution method, S. aureus SR3637 (H-MRSA); conditions: Methicillin High-Resistant Staphylococcus Aureus; for MIC: MRSA, read-out: MIC (minimum inhibitory concentration) S. aureus SR3637 (H-MRSA)
Method: as §1

[3] = test system: P. aeruginosa SR24-12; experiment: MIC by agar dilution method, P. aeruginosa SR24-12; conditions: for MIC: Pseudomonas aeruginosa, SR2412, AmpC High-Production Cephem Resistant Strain, read-out: MIC (minimum inhibitory concentration) P. aeruginosa SR24-12
Method: as §1

[4] = test system: E. cloacae SR4321 (Bla++); experiment: MIC by agar dilution method, E. cloacae SR4321 (Bla++); conditions: AmpC High-Production Cephem Resistant Strain; for MIC: Enterobacter cloacae, read-out: MIC (minimum inhibitory concentration) E. cloacae SR4321 (Bla++)
Method: as §1

Structure (SMILES) | MIC [1] | MIC [2] | MIC [3] | MIC [4] | MIC (minimum inhibitory concentration) S. epidermidis SR25009 (MRSE) [1] | MIC (minimum inhibitory concentration) S. aureus SR3637 (H-MRSA) [2] | MIC (minimum inhibitory concentration) P. aeruginosa SR24-12 ([3]; AmpC High-Production Cephem Resistant Strain) | MIC (minimum inhibitory concentration) E. cloacae SR4321 (Bla++) [4]
CC(C)(O/N=C(\C(=O)NC1C(=O)N2C(C(=O)[O-])=C(C[n+]3ccccc3)CSC12)c1nc(N)sc1Cl)C(=O)O (stereo not drawn) [Ex. 3] | 32 µg/mL (≈ 55.1 µM) | 32 µg/mL (≈ 55.1 µM) | 8 µg/mL (≈ 13.8 µM) | 16 µg/mL (≈ 27.5 µM) | – | – | – | –
C=C(O/N=C(\C(=O)NC1C(=O)N2C(C(=O)[O-])=C(C[n+]3cccc4c3ccn4CCCNC)CSC12)c1nc(N)sc1Cl)C(=O)O (stereo not drawn) [Ex. 19] | 8 µg/mL (≈ 11.8 µM) | 16 µg/mL (≈ 23.7 µM) | 8 µg/mL (≈ 11.8 µM) | 1 µg/mL (≈ 1.48 µM) | – | – | – | –
CNCCCn1ccc2c1ccc[n+]2CC1=C(C(=O)[O-])N2C(=O)C(NC(=O)/C(=N\OC(C)(C)C(=O)O)c3nc(N)sc3Br)C2SC1 (stereo not drawn) [Ex. 20] | 16 µg/mL (≈ 21.7 µM) | 16 µg/mL (≈ 21.7 µM) | 4 µg/mL (≈ 5.44 µM) | 8 µg/mL (≈ 10.9 µM) | – | – | – | –
CNCCCn1c(N)nc2c1ccc[n+]2CC1=C(C(=O)[O-])N2C(=O)[C@@H](NC(=O)/C(=N\O[C@@H](C)C(=O)O)c3nc(N)sc3Cl)C2SC1 (stereo partly drawn) [Ex. 79] | 8 µg/mL (≈ 11.5 µM) | 8 µg/mL (≈ 11.5 µM) | 4 µg/mL (≈ 5.77 µM) | 2 µg/mL (≈ 2.89 µM) | – | – | – | –
C[C@H](N)Cn1c(N)nc2c1ccc[n+]2CC1=C(C(=O)[O-])N2C(=O)C(NC(=O)/C(=N\O[C@@H](C)C(=O)O)c3nc(N)sc3Cl)C2SC1 (stereo partly drawn) [Ex. 98] | 8 µg/mL (≈ 11.8 µM) | 8 µg/mL (≈ 11.8 µM) | 2 µg/mL (≈ 2.94 µM) | 2 µg/mL (≈ 2.94 µM) | – | – | – | –
CC(C)(O/N=C(\C(=O)N[C@@H]1C(=O)N2C(C(=O)[O-])=C(C[n+]3ccccc3)CS[C@H]12)c1csc(N)n1)C(=O)O [Ref. 1, Ceftazidime, reference compound] | – | – | – | – | >128 µg/mL | >128 µg/mL | 64 µg/mL (≈ 117 µM) | 64 µg/mL (≈ 117 µM)

Second part, the compound after the results:

MIC [1] | MIC [2] | MIC [3] | MIC [4] | MIC (minimum inhibitory concentration) S. epidermidis SR25009 (MRSE) [1] | MIC (minimum inhibitory concentration) S. aureus SR3637 (H-MRSA) [2] | MIC (minimum inhibitory concentration) P. aeruginosa SR24-12 ([3]; AmpC High-Production Cephem Resistant Strain) | MIC (minimum inhibitory concentration) E. cloacae SR4321 (Bla++) [4] | Structure (SMILES)
32 µg/mL (≈ 47.3 µM) | 32 µg/mL (≈ 47.3 µM) | 4 µg/mL (≈ 5.91 µM) | 4 µg/mL (≈ 5.91 µM) | – | – | – | – | CNCCCn1ccc2c1ccc[n+]2CC1=C(C(=O)[O-])N2C(=O)C(NC(=O)/C(=N\O[C@H](C)C(=O)O)c3nc(N)sc3Cl)C2SC1 (stereo partly drawn) [Ex. 8]
8 µg/mL (≈ 12.5 µM) | 16 µg/mL (≈ 25 µM) | 4 µg/mL (≈ 6.26 µM) | 4 µg/mL (≈ 6.26 µM) | – | – | – | – | CNCCNc1cc[n+](CC2=C(C(=O)[O-])N3C(=O)[C@@H](NC(=O)/C(=N\O[C@@H](C)C(=O)O)c4nc(N)sc4Cl)[C@H]3SC2)cc1 [Ex. 124]
8 µg/mL (≈ 12.3 µM) | 16 µg/mL (≈ 24.6 µM) | 4 µg/mL (≈ 6.14 µM) | 4 µg/mL (≈ 6.14 µM) | – | – | – | – | C[C@H](O/N=C(\C(=O)N[C@@H]1C(=O)N2C(C(=O)[O-])=C(C[n+]3ccc(NC4CCNC4)cc3)CS[C@H]12)c1nc(N)sc1Cl)C(=O)O (stereo partly drawn) [Ex. 132]
